Results from paper PMC10861593, “Kisspeptin-10 binding to Gpr54 in osteoclasts prevents bone loss by activating Dusp18-mediated dephosphorylation of Src” (Nature Communications, 2024).
“Also recorded” adds a separate entry of the source.

Columns and labels:
Src (Y416) = assay: IB of Src (Y416) phosphorylation in BMMs / osteoclasts; format: cell-based, mouse; settings: for Src phosphorylation: Kp-10 20 min; for phosphorylation of Src (Y416): indicated dose of Kp-10 for 1 h; for phosphorylation of Src: Kp-10 1 h
Protocol: Fig. 1 Kp-10 /Gpr54 governs osteoclasts formation and bone resorption mainly via suppression of Src phosphorylation. a–d IB analysis of whole cell lysates (WCL) derived from BMMs isolated from eight-week-old wild-type (WT) and Gpr54^−/− mice. BMMs were starved in serum-free α-MEM for 4 h and then treated with 100 ng/mL RANKL for different time (a) and quantification of protein levels (b), incubated with indicated dose of Kp-10 for 1 h (c) and quantification of protein levels (d). e–i BMMs isolated from eight-week-old WT and Gpr54^−/− mice were stimulated with M-CSF (10 ng/ml) and RANKL (50 ng/ml) for 5–7 days. Representative TRAP staining images are shown. Scale bar, 250 µm (e) and the number of osteoclasts/well was counted (f). Phalloidin staining of F-actin ring is shown. Scale bar, 250 µm, 50 µm (g), the area (h) and nuclei numbers (i) per actin ring were counted. j, k BMMs isolated from eight-week-old WT and Gpr54^−/− mice were cultured in vitro on dentin slices, and after incubation with M-CSF (10 ng/ml) and RANKL (50 ng/ml) for 5–7 days, the pits formed by osteoclast absorption activity were scanned by confocal microscopy (x, y, and z sections). Scale bar, 125 µm (j), and pits depth were quantified by confocal microscopy (k). Data represent means ± SEM. P values were determined by two-way ANOVA analysis (b), one-way ANOVA analysis (d, f, k), or two-tailed Student’s t-test (h, i), Representative results were obtained from at least three independent experiments. Source data are provided as a Source Data file.
(§1) Whole-cell proteins were extracted using 1x RIPA buffer (25 mM Tris, pH7.5, 150 mM NaCl, 0.5% Sodium deoxycholate, 1% Triton-X-100) supplemented with protease inhibitors (Complete Mini, Roche) and phosphatase inhibitors (phosphatase inhibitor cocktail set I and II, Calbiochem). Immunoprecipitation and immunoblotting with indicated antibodies were performed as described in Supplementary Table 1. Image Jsoftware (V1.52) was used for quantification analysis. Uncropped and unprocessed blots are presented in the Supplementary Information file.
Supplementary Fig. 1 a, b IB analysis of whole cell lysates (WCL) derived from BMMs isolated from eight-week-old wild-type (WT) and Gpr54 ^-/- mice. BMMs were starved in serum-free α-MEM for 4 hours and then treated with indicated doses of Kp-10 for 1 hour and followed by the addition of 50 ng/mL M-CSF, 100 ng/mL RANKL for another 30 minutes (a) and quantification of protein levels (b). c, d Elisa assay showing Kisspeptins derived from the process of osteoblast or osteoclast differentiation in vitro. Kisspeptins normalization was based on the same number of MSCs, BMMs which were seeded on the plates before differentiation stimulation (c), and serum Kisspeptins from Sham (n=8) and OVX (n=7) mice (d). Representative results were obtained from at least three independent experiments. Error bars are ± SEM. P-values were determined by one-way ANOVA analysis (a) or two-tailed Student’s t-test (b). *P <0.05, ***P <0.001, ****P <0.0001. Representative results were obtained from at least three independent experiments. Source data are provided as a Source Data file.

[1] = test system: giant cell tumor of bone (GCT) cells; assay: TRAP assay of osteoclast formation in human giant cell tumor of bone (GCT) cells; format: cell-based; settings: Kp-10 5–7 days
Protocol: BMMs (5 × 10^3 cells/well) were seeded into 96-well plates with a bone slice and incubated with M-CSF (10 ng/ml) and RANKL (50 ng/ml) with or without Kp-10, and the culture medium was changed every other day for 5–7 days. Osteoclasts were fixed and stained by phalloidin and DAPI. “Pits” on bone slice after osteoclast resorption were fixed with 4% Glutaraldehyde and stained with 1% toluidine blue, and pit depth was examined by laser-scanning confocal microscopy. For primary cultures of giant-cell tumor of bone (GCTB) cells, the use of all patient-derived tumor specimens was approved by the Institutional Review Board and the research ethics committee of Shanghai Changzheng Hospital, which appeared in the proceedings of the meeting of the Ethics Committee on 18 November 2014 (report number: 2014090). Informed consent obtained from all tissue donors was written. The GCTB cells were isolated from tumor samples derived from tumor resections in Shanghai Changzheng Hospital, 1 × 10^6 GCTB cells were seeded in a 24-well plate. Cells were stimulated with indicated doses of Kp-10 for 5–7 days. The medium was changed every 2 days. Osteoclasts were fixed and stained using the TRAP-staining kit (Sigma-Aldrich, 387A-1KT).

Dusp18 expression = assay: WB of Dusp18 protein expression in RAW264.7 cells; format: cell-based, mouse
Source text: Anti-Flag IP of lysates derived from 293 T cells transfected with GPR54-flag and Src-HA constructs (d) and quantification results (e). Anti-Flag IP of lysates derived from 293 T cells transfected with GPR54-flag and DUSP18-HA constructs (f) and quantification results (g). Anti-Flag IP of lysates derived from 293 T cells transfected with Src-HA, and DUSP18-flag constructs (h) and quantification results (i). j, k IB analysis of lysates derived from WT BMMs and Gq/11 KO BMMs with or without Kp-10 treatment for 1 h (j) and quantification of results (k). l Working model of Kp-10 /Gpr54 mediated Src dephosphorylation. […] However, both active Src and DUSP18 were recruited by GPR54 through the PR motif in GPR54 CT along with the increase of Kp-10 dose (1, 10 nM). […] Data represent means ± SEM. P values were determined by one-way ANOVA analysis (b, c, e, g, i, k). Representative results were obtained from at least three independent experiments. Source data are provided as a Source Data file.
as §1
Supplementary Fig. 7 a-b IB and quantification of Dusp18 protein level induced by indicated dose of Kp-10 for 1 hour in RAW264.7 cells (a) and quantification of protein levels (b) or induced by Kp-10 (1nM) for 1 hour in RAW264.7 transfected with ERK1/2 siRNA. Error bars are ± SEM. P-values were determined by one-way ANOVA analysis (b). ****P <0.0001. “ns” means no significant difference. Representative results were observed from at least three independent experiments. Source data are provided as a Source Data file.

Kisspeptin-10 [Kp-10]
Src phosphorylation, 10 nM (Src (Y416); 10 nM Kp-10): more obviously blocked | Src phosphorylation (Src (Y416); Dusp18-depleted BMMs): failed to do so | phosphorylation of Src (Y416) (Src (Y416); Gpr54 WT osteoclasts/BMMs): effectively reduced the phosphorylation of Src (Y416) | phosphorylation of Src (Y416) (Src (Y416); Gpr54 knockout osteoclasts/BMMs): failed to inhibit Src (Y416) phosphorylation | phosphorylation of Src (Src (Y416); Gq/11 KO BMMs): failed to have a significant effect | phosphorylation of Src (Src (Y416); WT BMMs (Gq/11 experiment)): inhibited the phosphorylation of Src | Src phosphorylation (Src (Y416); WT pre-osteoclasts/BMMs (Dusp18 experiment)): blocked Src phosphorylation | osteoclast formation [1]: suppressed osteoclast formation; also recorded: dose-dependently suppressed | protein level of Dusp18 upon ERK1/2 siRNA (Dusp18 expression; RAW264.7, ERK1/2 siRNA, Kp-10 (1 nM) 1 h): cannot be obviously up-regulated | expression of Dusp18 (protein), 10 nM (Dusp18 expression; RAW264.7, Kp-10 10 nM for 1 h): not by 10 nM Kp-10 | expression of Dusp18 (protein), 0.1 and 1 nM (Dusp18 expression; RAW264.7, Kp-10 0.1, 1 nM for 1 h): obviously upregulated the expression of Dusp18; also recorded: induced the expression of Dusp18 obviously
